Laboratory results: publication PMC9500805, “Cytotoxic Assessment of 3,3-Dichloro-β-Lactams Prepared through Microwave-Assisted Benzylic C-H Activation from Benzyl-Tethered Trichloroacetamides Catalyzed by RuCl2(PPh3)3” (Molecules, 2022)
Converted amounts (≈) assume the structure as drawn.

Experiments:
[1] = test system: human MCF-7 breast cancer cells; design: method as in PMID 21397510; conditions: cited from earlier work
HaCaT cells [2] = experiment: Cell viability, MTT assay, HaCaT; format: cell-based; conditions: Homo sapiens, 24 h, MTT endpoint, 10–250 µg/mL tested
Method: (§1) The immortal human keratinocyte (HaCaT) and the squamous cell carcinoma (A431) cell lines were obtained from Celltec UB. Cells were grown in DMEM medium (4.5 g/L glucose) supplemented with 10% (v/v) FBS, 2 mM L-glutamine, 100 U/mL penicillin and 100 µg/mL streptomycin at 37 °C, 5% CO2. Cells were routinely cultured in 75 cm^2 culture flasks and were trypsinized using trypsin–EDTA when the cells reached approximately 80% confluence. The trypan blue assay, which allows a direct identification and enumeration of live (unstained) and dead (blue) cells in a given population, was used to evaluate the viability of the cells in the cell suspension obtained.
(§2) HaCaT cells (1 × 10^5 cells/mL) and A431 cells (5 × 10^4 cells/mL) were grown at the defined densities in the 60 central wells of a 96-well plate. Cells were incubated for 24 h in 5% CO2 at 37 °C. Then, the spent medium was removed, and cells were incubated for 24 h with the corresponding compound solutions (1 mg/mL) previously diluted in the minimum amount of DMF (dimethylformamide) and then in DMEM medium supplemented with 5% FBS (100 µL) at the required concentration range (10–250 µg/mL). The viability of the cells upon incubation with the β-lactam derivatives was assayed using 2 different endpoints: NRU and MTT.
(§3) Only living cells can reduce the yellow tetrazolium salt 3-(4,5-dimethyl-2-thiazolyl)-2,5-diphenyltetrazolium bromide (MTT) to insoluble purple formazan crystals. After 24 h of incubation of the cells with the corresponding NPs, the medium was removed, and 100 µL of MTT (Sigma-Aldrich, St. Louis, United States) in PBS (5 mg/mL) diluted 1:10 in culture medium without phenol red and without FBS (Lonza, Verviers, Belgium) was added to the cells. After 3 h of incubation, the medium was removed. Thereafter, 100 µL of DMSO (Sigma-Aldrich, St. Louis, MO, USA) was added to each well to dissolve the purple formazan crystals. Agitation and determination of the absorbance of the extracted solution were performed under the same conditions, as described in Section 3.4.1. Finally, the effect of each treatment was calculated as the percentage of tetrazolium salt reduction by viable cells relative to the control cells (cells without any treatment).
(§4) The corresponding half-maximal inhibitory concentration (IC50) values for the different formulations as a function of cell line and endpoint were determined from the fitting of concentration-dependent viability curves.

[3] = Cell viability-screening assays (MTT and NRU), both cell lines; format: cell-based, human; conditions: human, HaCaT keratinocytes and A431 squamous cell carcinoma cells; HaCaT and A431, MTT and NRU, 24 h, 10–250 µg/mL; as a function of cell type and endpoint method; read-out: percentage viability compared to control cells
Method: as §1, §2
(§5) The neutral red uptake (NRU) assay is based on the accumulation of the dye in the lysosomes of viable cells. After the cells were incubated for 24 h with the corresponding systems, the medium was removed, and the solutions were incubated with the NR dye (Sigma-Aldrich, St. Louis, MO, USA) solution (50 µg/mL) dissolved in the medium without FBS and without phenol red (Lonza, Verviers, Belgium) for 3 h. Cells were then washed with sterile PBS, followed by the addition of 100 µL of a solution containing 50% absolute ethanol and 1% acetic acid in distilled water to extract the dye. To promote total dissolution of the dye, plates were placed in a microtiter-plate shaker for 5 min at room temperature. The absorbance of the resulting solutions was measured at 550 nm (Bio-Rad 550 microplate reader, Bio-Rad California, Hercules, CA, USA). Finally, the effect of each treatment was calculated as the percentage of dye uptake by viable cells relative to the control cells (cells without any treatment).
as §3

A431 cells [4] = experiment: Cell viability, NRU assay, A431; format: cell-based, human; conditions: for IC50: Homo sapiens, A-431, 24 h, A431, 24 h, NRU endpoint, 10–250 µg/mL tested; for SI NRU: SI = IC50 HaCaT / IC50 A431, NRU endpoint
Method: as §1, §2, §5, §4
(§6) The corresponding selectivity indexes toward tumoral cells were calculated as the following ratio:SI = IC50 (non-tumoral cell line)/IC50 (tumoral cell line) where HaCaT keratinocytes were used as close representatives of a skin model cell line under non-tumoral conditions.

[5] = Hemolysis assay with human erythrocytes; format: cell-based; conditions: human erythrocyte suspension, PBS pH 7.4, mean ± SD; for hemolysis at 10 µg/mL: compound at 10 µg/mL; for hemolysis at 80 µg/mL: compound at 80 µg/mL
Method: Human blood samples were obtained from the Banc de Sang i Teixits de Barcelona (Spain) from the Catalan Department of Health. Blood was deposited in tubes with the anticoagulant EDTA-K3. Blood samples were centrifuged at 3000 rpm at 4 °C for 10 min (Megafuge 2.0 R. Heraeus Instruments, Hanau, Germany) to induce sedimentation. Plasma was extracted with a Pasteur pipette. Next, the residual pellet was washed with PBS at pH 7.4. This procedure was repeated three times to remove residual leukocytes and platelets and to concentrate the erythrocytes. Following the last wash, the erythrocyte suspension was diluted (1:1) in PBS at pH 7.4 to obtain a suitable erythrocyte suspension (cell density of 8 × 10^9 cell/mL).
The hemolysis assay determined the capability of the different compounds to induce hemolysis of the erythrocyte membrane. Stock solutions of each compound at 1 mg/mL in PBS at pH 7.4 were prepared. Different volumes (10–80 µL) were placed in polystyrene tubes, and an aliquot of 25 µL of the erythrocyte suspensions was added to each tube. The final volume was 1 mL. The tubes were incubated at room temperature under rotatory conditions. Next, the tubes were centrifuged at 10,000 rpm for 5 min. The supernatants’ absorbance at 540 nm (Shimadzu UV-160A, Shimadzu, Duisburg, Germany) was compared with that of the control samples hemolyzed with distilled water (positive control). The negative control was obtained by incubating an aliquot of 25 µL of the erythrocyte suspension with PBS at pH 7.4.
The degree of hemolysis was determined with the following equation:Hemolysis (%) = 100 × (Abs − Ab0)/(Abs100 − Abs0) where Abs, Abs0 and Abs100 are the absorbance of test samples, of the suspension treated with isotonic physiological buffer saline (PBS) and of the suspension of complete hemolysis treated with distilled water, respectively.

A431 cells [6] = experiment: Cell viability, MTT assay, A431; format: cell-based, human; conditions: for IC50: Homo sapiens, A-431, 24 h, A431, 24 h, MTT endpoint, 10–250 µg/mL tested; for SI MTT: SI = IC50 HaCaT / IC50 A431, MTT endpoint
Method: as §1, §2, §3, §4, §6

HaCaT cells [7] = experiment: Cell viability, NRU assay, HaCaT; format: cell-based, human; conditions: 24 h, NRU endpoint, 10–250 µg/mL tested; for IC50: Homo sapiens
Method: as §1, §2, §5, §4

HaCaT cells [8] = experiment: Cell viability, HaCaT, MTT and NRU endpoints taken together; format: cell-based; conditions: Homo sapiens, 24 h, span over or independent of endpoint method
Method: as §1, §2
as §5, with “Cells were then washed with sterile PBS, followed by the addition of 100 µL of a solution containing 50% absolute ethanol and 1% acetic acid in distilled water to extract the dye. To promote total dissolution of the dye, plates were placed in a microtiter-plate shaker for 5 min at room temperature.” left out
Only living cells can reduce the yellow tetrazolium salt 3-(4,5-dimethyl-2-thiazolyl)-2,5-diphenyltetrazolium bromide (MTT) to insoluble purple formazan crystals. […] Agitation and determination of the absorbance of the extracted solution were performed under the same conditions, as described in Section 3.4.1. Finally, the effect of each treatment was calculated as the percentage of tetrazolium salt reduction by viable cells relative to the control cells (cells without any treatment).
as §4

A431 cells [9] = experiment: Cell viability, A431, MTT and NRU endpoints taken together; format: cell-based; conditions: Homo sapiens, A-431; A431, 24 h, span over or independent of endpoint method
Method: as §1, §2, §5, §3, §4

HaCaT and A431 cells = experiment: Cell viability-screening assays (MTT and NRU), both cell lines; format: cell-based, human; conditions: regardless of the concentration range
Method: as §1, §2, §5, §3

[10] = human, pH 7.4, human RBC suspension

For `COc1ccc([C@@H]2[C@@H](c3ccsc3)C(=O)N2c2cc(OC)c(OC)c(OC)c2)cc1O` [II], the IC50 [1] is given as 10 nM.
With `Cc1ccccc1C1N(C(C)(C)C)C(=O)C1(Cl)Cl` (centres unmarked) [2c] the IC50 (HaCaT cells [2]) was about 250 µg/mL (≈ 874 µM), the viability at 24 h [3] was at most 50% and the IC50 (A431 cells [4]) was over 250 µg/mL. For the same molecule, the “SI NRU” value (A431 cells [4]) was over 1.0, the hemolysis at 10 µg/mL [5, 10] was 0.01 ± 0.01% and the hemolysis at 80 µg/mL [5, 10] was 0.01 ± 0.01%. For the same molecule, the IC50 (A431 cells [6]) was about 250 µg/mL (≈ 874 µM), the “SI MTT” value (A431 cells [6]) was 1.0 and the IC50 (HaCaT cells [7]) was over 250 µg/mL.
For `CC(C)(C)N1C(=O)C(Cl)(Cl)C1c1ccccc1` (centres unmarked) [2b], the IC50 (HaCaT cells [2]) was 19.8 µg/mL (≈ 72.8 µM), the viability at 24 h [3] was under 20% and the IC50 (A431 cells [4]) was 29.5 µg/mL (≈ 109 µM). The “SI NRU” value (A431 cells [4]) was 1.63, the hemolysis at 10 µg/mL ([5]; human RBC suspension) was 0.01 ± 0.01% and the hemolysis at 80 µg/mL ([5]; human RBC suspension) was 2.5 ± 0.97%. The IC50 (A431 cells [6]) was 46.9 µg/mL (≈ 172 µM), the “SI MTT” value (A431 cells [6]) was 0.42 and the IC50 (HaCaT cells [8]) was 20 to 49 µg/mL (≈ 73.5 to 180 µM). It also gave an IC50 (A431 cells [9]) of 30 to 47 µg/mL (≈ 110 to 173 µM) and an IC50 (HaCaT cells [7]) of 48.3 µg/mL (≈ 177 µM).
In the case of `COc1ccc([C@@H]2[C@@H](c3cccs3)C(=O)N2c2cc(OC)c(OC)c(OC)c2)cc1O` [I], the IC50 [1] is listed as 7 nM.
With `Cc1ccc(C2N(C(C)(C)C)C(=O)C2(Cl)Cl)cc1` (centres unmarked) [2e] the IC50 (HaCaT cells [2]) was 92.6 µg/mL (≈ 324 µM), the viability at 24 h [3] was under 20% and the “selectivity against the cell type (HaCaT vs A431 cytotoxicity)” value (HaCaT and A431 cells) was “higher cytotoxicity in HaCaT cells than in A431 cells”. The IC50 (A431 cells [4]) was 121 µg/mL (≈ 422 µM), the “SI NRU” value (A431 cells [4]) was 0.65 and the hemolysis at 10 µg/mL [5, 10] was 0.01 ± 0.01%. For the same molecule, the hemolysis at 80 µg/mL [5, 10] was 0.2 ± 0.23%, the IC50 (A431 cells [6]) was 180 µg/mL (≈ 629 µM) and the “SI MTT” value (A431 cells [6]) was 0.51. The IC50 (HaCaT cells [8]) was 78 to 93 µg/mL (≈ 273 to 325 µM), the IC50 (A431 cells [9]) was 120 to 180 µg/mL (≈ 419 to 629 µM) and the IC50 (HaCaT cells [7]) was 78.8 µg/mL (≈ 275 µM).
Work on `CC(C)N1C(=O)C(Cl)(Cl)C1c1ccccc1` (centres unmarked) [2j] yielded an IC50 (HaCaT cells [2]) of 42.1 µg/mL (≈ 163 µM), a viability at 24 h [3] of under 20% and an IC50 (A431 cells [4]) of 37.9 µg/mL (≈ 147 µM). For the same molecule, the “SI NRU” value (A431 cells [4]) was 1.06, the hemolysis at 10 µg/mL [5, 10] was 0.01 ± 0.01% and the hemolysis at 80 µg/mL [5, 10] was 0.02 ± 0.02%. For the same molecule, the IC50 (A431 cells [6]) was 76.2 µg/mL (≈ 295 µM), the “SI MTT” value (A431 cells [6]) was 0.55 and the IC50 (HaCaT cells [8]) was 40 to 42 µg/mL (≈ 155 to 163 µM). The IC50 (A431 cells [9]) was 38 to 76 µg/mL (≈ 147 to 294 µM) and the IC50 (HaCaT cells [7]) was 40.1 µg/mL (≈ 155 µM).
With `O=C1N(C2CCCCC2)C(c2ccccc2)C1(Cl)Cl` (centres unmarked) [2k] the IC50 (HaCaT cells [2]) was over 250 µg/mL, the viability at 24 h [3] was under 20% and the IC50 (A431 cells [4]) was 220 µg/mL (≈ 738 µM). For the same molecule, the “SI NRU” value (A431 cells [4]) was over 1.13, the hemolysis at 10 µg/mL [5, 10] was about 0.25% and the hemolysis at 80 µg/mL [5, 10] was 0.3 ± 0.21%. For the same molecule, the IC50 (A431 cells [6]) was 250 µg/mL (≈ 838 µM), the “SI MTT” value (A431 cells [6]) was over 1.0 and the IC50 (A431 cells [9]) was over 250 µg/mL. For the same molecule, the “IC50 HaCaT NRU” value (HaCaT cells [7]) was over 250 µg/mL and the IC50 (HaCaT cells [7]) was about 220 µg/mL (≈ 738 µM).
In the case of `CC(C)(C)N1C(=O)C(Cl)(Cl)C1c1cc(F)cc(F)c1` (centres unmarked) [2h], the IC50 (HaCaT cells [2]) is reported as over 250 µg/mL, the viability at 24 h [3] is reported as at most 50% and the “selectivity against the cell type (HaCaT vs A431 cytotoxicity)” value (HaCaT and A431 cells) is reported as “the opposite results”. The IC50 (A431 cells [4]) was 250 µg/mL (≈ 811 µM), the “SI NRU” value (A431 cells [4]) was over 1.0 and the hemolysis at 10 µg/mL [5, 10] was 0.05 ± 0.05%. For the same molecule, the hemolysis at 80 µg/mL [5, 10] was 0.12 ± 0.09%, the IC50 (A431 cells [6]) was 250 µg/mL (≈ 811 µM) and the “SI MTT” value (A431 cells [6]) was over 1.0. The IC50 (HaCaT cells [8]) was over 250 µg/mL, the IC50 (A431 cells [9]) was about 250 µg/mL (≈ 811 µM) and the IC50 (HaCaT cells [7]) was over 250 µg/mL.
